Source: patent publication US12247018B2, “Aryl-n-aryl derivatives for treating a RNA virus infection” (ABIVAX, priority 2018, dated 2025)

Test system: RSV A2
Assay: RSV inhibition (cytopathic effect) in HEp-2 cells using Viral ToxGlo assay
Assay type: cell-based
Conditions: human respiratory syncytial virus; RSV A2, HEp-2 cells, MOI 0.5, 72 h p.i.
Experimental: Protocol for Screening Antiviral Compounds for RSV Inhibition and Cytotoxicity Using Viral ToxGlo Assay
HEp-2 cells were maintained in Eagle's minimum essential medium (EMEM) with Earle's BSS adjusted to contain 2 mM L-glutamine, 10% fetal bovine serum, 100 U/ml penicillin and 100 μg/ml streptomycin. For the purposes of the screening assay they were grown to 90% confluency, trypsinized and recovered. The trypsin was neutralised with cell culture media and cells were centrifuged at 150×g for 5 minutes before discarding the supernatant and resuspending cell pellet in assay media (EMEM with Earle's BSS adjusted to contain 2 mM L-glutamine, 2% fetal bovine serum and 100 U/ml penicillin and 100 μg/ml streptomycin). The cells were seeded into white clear-bottomed cell culture plates at a density of 1.5×10^4 cells/well in 50 μl and 4×10^3 cells/well in 25 μl for 96 well plates and 384 well plates respectively. For the media/background control column assay media only was added. Cell plates were placed in a humid chamber and incubated overnight at 37° C./5% CO2. After overnight incubation cells were checked for confluency and healthy appearance.
Test articles were made up at 10× test concentration in a maximum DMSO concentration of 10% (final assay concentration maximal 1% DMSO) and added to the cell plates in volumes of 10 μl for 96 well plates and 5 μl for 384 well plates. For cell control and virus control wells the test article solvent only was added. Virus or assay media for cytotoxicity test wells and media/cell control wells was added immediately after test articles at an MOI of 0.5, 40 or 20 μl for 96 and 384 well plates respectively. Virus suspension was prepared by thawing RSV A2 frozen stocks and diluting to the required concentration of plaque forming units in assay media on ice.
Cell plates were further incubated inside a humid chamber for 72 h p.i at 37° C./5% CO2. After the incubation period cells were observed under the microscope to check for characteristic cytopathic effect in virus control wells and healthy cells in the cell control wells. After plates were adjusted to room temperature 20/40 μl Viral ToxGlo (Promega) was added to each well of the 384/96 well cell plates. Plates were incubated at room temperature, protected from light on a plate rocker for 20 minutes before measuring the luminescence on a spectrophotometer (Biotek Synergy HTX).

CC1COCCN1C(=O)c1cccc(Nc2ccc(C(=O)/N=C3\NCCC(=O)N3)cc2C2CC2)c1Cl (stereo not drawn) [compound 91, 4-{[2-chloro-3-(3-methylmorpholine-4-carbonyl)phenyl]amino}-3-cyclopropyl-N-[(2E)-4-oxo-1,3-diazinan-2-ylidene]benzamide]
EC50: 0.002 µM

CC1CN(C(=O)c2cccc(Nc3ccc(C(=O)/N=C4\NCCC(=O)N4)cc3C3CC3)c2Cl)CCO1 (stereo not drawn) [compound 92, 4-{[2-chloro-3-(2-methylmorpholine-4-carbonyl)phenyl]amino}-3-cyclopropyl-N-[(2E)-4-oxo-1,3-diazinan-2-ylidene]benzamide]
EC50: 0.002 µM

O=C1CCN/C(=N\C(=O)c2ccc(Nc3cccc(OCC4COCCO4)c3Cl)c(C3CC3)c2)N1 (stereo not drawn) [compound 93, 4-({2-chloro-3-[(1,4-dioxan-2-yl)methoxy]phenyl}amino)-3-cyclopropyl-N-[(2E)-4-oxo-1,3-diazinan-2-ylidene]benzamide]
EC50: 0.013 µM

CC(C)CCS(=O)(=O)Nc1cccc(Nc2ccc(C(=O)/N=C3\NCCC(=O)N3)cc2C(C)(C)C)c1 [compound 94, 3-tert-butyl-4-{[3-(3-methylbutanesulfonamido)phenyl]amino}-N-[(2E)-4-oxo-1,3-diazinan-2-ylidene]benzamide]
EC50: 0.017 µM

O=C1CCN/C(=N\C(=O)c2ccc(Nc3cccc(C(=O)N4CCOCC4)c3Cl)c(C3CC3)c2)N1 [compound 95, 4-{[2-chloro-3-(morpholine-4-carbonyl)phenyl]amino}-3-cyclopropyl-N-[(2E)-4-oxo-1,3-diazinan-2-ylidene]benzamide]
EC50: 0.019 µM

Cc1c(Nc2ccc(C(=O)N=C3NCCCN3)cc2C2CC2)cccc1C(=O)NCCC(C)C [compound 96, 3-cyclopropyl-N-(1,3-diazinan-2-ylidene)-4-({2-methyl-3-[(3-methylbutyl)carbamoyl]phenyl}amino)benzamide]
EC50: 0.02 µM

O=C1CCN/C(=N\C(=O)c2ccc(Nc3cccc(OCCCC4CCCCC4)c3)c(C3CC3)c2)N1 [compound 97, 4-{[3-(3-cyclohexylpropoxy)phenyl]amino}-3-cyclopropyl-N-[(2E)-4-oxo-1,3-diazinan-2-ylidene]benzamide]
EC50: 0.025 µM

CC(C)NC(=O)c1cccc(Nc2ccc(C(=O)/N=C3\NCCC(=O)N3)cc2C(C)(C)C)c1 [compound 98, 3-tert-butyl-N-[(2E)-4-oxo-1,3-diazinan-2-ylidene]-4-({3-[(propan-2-yl)carbamoyl]phenyl}amino)benzamide]
EC50: 0.033 µM

CC1(NC(=O)c2cccc(Nc3ccc(C(=O)N=C4NCCCN4)cc3C3CC3)c2)CC1 [compound 99, 3-cyclopropyl-N-(1,3-diazinan-2-ylidene)-4-({3-[(1-methylcyclopropyl)carbamoyl]phenyl}amino)benzamide]
EC50: 0.034 µM

CC(C)NC(=O)c1ccccc1Nc1ccc(C(=O)/N=C2\NCCC(=O)N2)cc1C(C)(C)C [compound 100, 3-tert-butyl-N-[(2E)-4-oxo-1,3-diazinan-2-ylidene]-4-({2-[(propan-2-yl)carbamoyl]phenyl}amino)benzamide]
EC50: 0.037 µM

CCC(C)NC(=O)c1cccc(Nc2ccc(C(=O)N=C3NCCCN3)cc2C2CC2)c1 (stereo not drawn) [compound 101, 4-({3-[(butan-2-yl)carbamoyl]phenyl}amino)-3-cyclopropyl-N-(1,3-diazinan-2-ylidene)benzamide]
EC50: 0.04 µM

CC(C)NC(=O)c1cccc(Nc2ccc(C(=O)N=C3NCCCN3)cc2C2CC2)c1 [compound 102, 3-cyclopropyl-N-(1,3-diazinan-2-ylidene)-4-({3-[(propan-2-yl)carbamoyl]phenyl}amino)benzamide]
EC50: 0.041 µM

O=C(N=C1NCCCN1)c1ccc(Nc2cccc(C(O)CCCC3CCCCC3)c2)c(C2CC2)c1 (stereo not drawn) [compound 103, 4-{[3-(4-cyclohexyl-1-hydroxybutyl)phenyl]amino}-3-cyclopropyl-N-(1,3-diazinan-2-ylidene)benzamide]
EC50: 0.044 µM

CC(C)CCNC(=O)c1cccc(Nc2ccc(C(=O)N=C3NCCCN3)cc2C(F)(F)F)c1 [compound 104, N-(1,3-diazinan-2-ylidene)-4-({3-[(3-methylbutyl)carbamoyl]phenyl}amino)-3-(trifluoromethyl)benzamide]
EC50: 0.05 µM

CC(C)CCCNC(=O)c1cccc(Nc2ccc(C(=O)N=C3NCCCN3)cc2C2CC2)c1 [compound 105, 3-cyclopropyl-N-(1,3-diazinan-2-ylidene)-4-({3-[(4-methylpentyl)carbamoyl]phenyl}amino)benzamide]
EC50: 0.062 µM

O=C(N=C1NCCCN1)c1ccc(Nc2ccccc2S(=O)(=O)CCCC2CCCCC2)c(C2CC2)c1 [compound 106, 4-{[2-(3-cyclohexylpropanesulfonyl)phenyl]amino}-3-cyclopropyl-N-(1,3-diazinan-2-ylidene)benzamide]
EC50: 0.067 µM

CC(C)CCCCNC(=O)c1cccc(Nc2ccc(C(=O)N=C3NCCCN3)cc2C2CC2)c1 [compound 107, 3-cyclopropyl-N-(1,3-diazinan-2-ylidene)-4-({3-[(5-methylhexyl)carbamoyl]phenyl}amino)benzamide]
EC50: 0.068 µM

CC(C)NC(=O)c1cccc(Nc2ccc(C(=O)/N=C3\NCCCN3C)cc2C2CC2)c1 [compound 108, 3-cyclopropyl-N-[(2E)-1-methyl-1,3-diazinan-2-ylidene]-4-({3-[(propan-2-yl)carbamoyl]phenyl}amino)benzamide]
EC50: 0.077 µM

CC(NC(=O)c1cccc(Nc2ccc(C(=O)N=C3NCCCN3)cc2C2CC2)c1)C(F)(F)F (stereo not drawn) [compound 109, 3-cyclopropyl-N-(1,3-diazinan-2-ylidene)-4-({3-[(1,1,1-trifluoropropan-2-yl)carbamoyl]phenyl}amino)benzamide]
EC50: 0.079 µM

CCC(CC)NC(=O)c1cccc(Nc2ccc(C(=O)N=C3NCCCN3)cc2C2CC2)c1 [compound 110, 3-cyclopropyl-N-(1,3-diazinan-2-ylidene)-4-({3-[(pentan-3-yl)carbamoyl]phenyl}amino)benzamide]
EC50: 0.08 µM

O=C(N=C1NCCCN1)c1ccc(Nc2cc(C(=O)NCCC3CCCCC3)ccn2)c(C(F)(F)F)c1 [compound 111, N-(2-cyclohexylethyl)-2-({4-[(1,3-diazinan-2-ylidene)carbamoyl]-2-(trifluoromethyl)phenyl}amino)pyridine-4-carboxamide]
EC50: 0.086 µM

O=C(N=C1NCCCN1)c1ccc(Nc2cccc(OC(F)F)c2)c(C2CC2)c1 [compound 112, 3-cyclopropyl-N-(1,3-diazinan-2-ylidene)-4-{[3-(difluoromethoxy)phenyl]amino}benzamide]
EC50: 0.097 µM

CC(C)CCNC(=O)c1cccc(Nc2ccc(C(=O)N=C3NCCCN3)cc2C2CC2)c1 [compound 113, 3-cyclopropyl-N-(1,3-diazinan-2-ylidene)-4-({3-[(3-methylbutyl)carbamoyl]phenyl}amino)benzamide]
EC50: 0.102 µM

O=C(N=C1NCCCN1)c1ccc(Nc2cccc(C(=O)NC3CC3)c2)c(C2CC2)c1 [compound 114, 3-cyclopropyl-4-{[3-(cyclopropylcarbamoyl)phenyl]amino}-N-(1,3-diazinan-2-ylidene)benzamide]
EC50: 0.11 µM

O=C(N=C1NCCCN1)c1ccc(Nc2cccc(OCCCC3CCCCC3)c2)c(C2CC2)c1 [compound 115, 4-{[3-(3-cyclohexylpropoxy)phenyl]amino}-3-cyclopropyl-N-(1,3-diazinan-2-ylidene)benzamide]
EC50: 0.11 µM

CC(C)C(=O)Nc1cccc(Nc2ccc(C(=O)/N=C3\NCCC(=O)N3)cc2C2CC2)c1 [compound 116, 3-cyclopropyl-4-{[3-(2-methylpropanamido)phenyl]amino}-N-[(2E)-4-oxo-1,3-diazinan-2-ylidene]benzamide]
EC50: 0.122 µM

O=C(N=C1NCCCN1)c1ccc(Nc2cccc(C(=O)NC3CCCCC3)c2)c(C2CC2)c1 [compound 117, 4-{[3-(cyclohexylcarbamoyl)phenyl]amino}-3-cyclopropyl-N-(1,3-diazinan-2-ylidene)benzamide]
EC50: 0.125 µM

CC(C)CCN(C)C(=O)c1cccc(Nc2ccc(C(=O)N=C3NCCCN3)cc2C2CC2)c1 [compound 118, 3-cyclopropyl-N-(1,3-diazinan-2-ylidene)-4-({3-[methyl(3-methylbutyl)carbamoyl]phenyl}amino)benzamide]
EC50: 0.126 µM

O=C(N=C1NCCCN1)c1ccc(Nc2cccc(-n3cc(CC4CCCCC4)nn3)c2)c(C2CC2)c1 [compound 119, 4-({3-[4-(cyclohexylmethyl)-1H-1,2,3-triazol-1-yl]phenyl}amino)-3-cyclopropyl-N-(1,3-diazinan-2-ylidene)benzamide]
EC50: 0.13 µM

CC(C)NC(=O)c1cccc(Nc2ccc(C(=O)/N=C3\NCCC(=O)N3)cc2C2CC2)c1 [compound 120, 3-cyclopropyl-N-[(2E)-4-oxo-1,3-diazinan-2-ylidene]-4-({3-[(propan-2-yl)carbamoyl]phenyl}amino)benzamide]
EC50: 0.136 µM
